Reference: the supplement of paper PMC11208160

Assay: recombinant UMI read abundance after kanamycin selection (control-corrected) (log10(CPM+1)); higher = more efficient recombination; extreme values may be limits of the assay; sequences stand for … in AGTGCAGAGAAAATCGGCCAGTTTTCTCTGCCTGCAGTCCGCATGCCGTGGGACCCCTTGGGTTCTAACCTGTTGCCTAGATTTATGCAGCGGACTGCCTTTCTCCCAAAGTGATAAACCGG…AGGTTGGTTTCACT; site = the 11-nt donor
Outline: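 After plating on IPTG (0.07 mM) plus kanamycin, or unselected, in two replicates, recombinant UMIs were PCR-amplified across the donor–target junction and sequenced. The cells were Escherichia coli co-electroporated with a UMI-tagged donor and donor-binding-loop pair library and a target plasmid with a fixed target and T7-inducible IS621 bridge recombinase. Values are log10(CPM+1), with CPM averaged over replicates and scaled by control-derived factors.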
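Further: IS621 bridge recombinase in Escherichia coli cells against a fixed T5 target plasmid.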

Sequence	recombinant UMI read abundance (log10)
GCGAAAACATGGACCGGTTTTCCCGGTAATCCGTATTTGCA (site GCGAAAACTCG)	1.4
GCGAAAACATGGACCGGTTTTCCCGGTAATCCGTATTTGCA (site GCGAAAACTGG)	0
GCGAAAACATGGACCGGTTTTCCCGGTAATCCGTATTTGCA (site GCGAAAACTTG)	0.929
GCGAAATCATGGACCGGTTTTCCCGGTAATCCGTATTTGCT (site GCGAAAACTAG)	0
GCGAAATCATGGACCGGTTTTCCCGGTAATCCGTATTTGCT (site GCGAAACCTAG)	0
GCGAAATCATGGACCGGTTTTCCCGGTAATCCGTATTTGCT (site GCGAAAGCTAG)	0
GCGAAATCATGGACCGGTTTTCCCGGTAATCCGTATTTGCT (site GCGAAATCTAG)	1.62
GCGAACCCATGGACCGGTTTTCCCGGTAATCCGTATTTGAT (site GCGAACCCTAT)	0.903
GCGAACCCATGGACCGGTTTTCCCGGTAATCCGTATTTGGG (site GCGAAACCTCC)	0.013
GCGAACCCATGGACCGGTTTTCCCGGTAATCCGTATTTGGG (site GCGAACCCTCC)	0.0373
GCGAACCCATGGACCGGTTTTCCCGGTAATCCGTATTTGGG (site GCGAAGCCTCC)	0.00885
GCGAACCCATGGACCGGTTTTCCCGGTAATCCGTATTTGGG (site GCGAATCCTCC)	0.0113
GCGAAGACATGGACCGGTTTTCCCGGTAATCCGTATTTGCT (site GCGAAAACTAG)	1.01
GCGAAGACATGGACCGGTTTTCCCGGTAATCCGTATTTGCT (site GCGAACACTAG)	0.298
GCGAAGACATGGACCGGTTTTCCCGGTAATCCGTATTTGCT (site GCGAAGACTAG)	1.92
GCGAAGACATGGACCGGTTTTCCCGGTAATCCGTATTTGCT (site GCGAATACTAG)	0
GCGAAGACATGGACCGGTTTTCCCGGTAATCCGTATTTGGG (site GCGAAGACTCC)	0.479
GCGAAGACATGGACCGGTTTTCCCGGTAATCCGTATTTGGG (site GCGAAGCCTCC)	0
GCGAAGACATGGACCGGTTTTCCCGGTAATCCGTATTTGGG (site GCGAAGGCTCC)	0.287
GCGAAGACATGGACCGGTTTTCCCGGTAATCCGTATTTGGG (site GCGAAGTCTCC)	0.439
GCGAAGCCATGGACCGGTTTTCCCGGTAATCCGTATTTGGA (site GCGAAGCCTAC)	0.00917
GCGAAGCCATGGACCGGTTTTCCCGGTAATCCGTATTTGGA (site GCGAAGCCTCC)	0.00526
GCGAAGCCATGGACCGGTTTTCCCGGTAATCCGTATTTGGA (site GCGAAGCCTGC)	0
GCGAAGCCATGGACCGGTTTTCCCGGTAATCCGTATTTGGA (site GCGAAGCCTTC)	0.24
GCGAAGCCATGGACCGGTTTTCCCGGTAATCCGTATTTGGC (site GCGAAGCCTAC)	0.0106

Sequence	recombinant UMI read abundance (log10)
GCGAAGCCATGGACCGGTTTTCCCGGTAATCCGTATTTGGC (site GCGAAGCCTCC)	0
GCGAAGCCATGGACCGGTTTTCCCGGTAATCCGTATTTGGC (site GCGAAGCCTGC)	0
GCGAAGCCATGGACCGGTTTTCCCGGTAATCCGTATTTGGC (site GCGAAGCCTTC)	0.664
GCGACACCATGGACCGGTTTTCCCGGTAATCCGTATTTGTC (site GCGACACCTGA)	0
GCGACATCATGGACCGGTTTTCCCGGTAATCCGTATTTGTG (site GCGACATCTCA)	1.78
GCGACCACATGGACCGGTTTTCCCGGTAATCCGTATTTGTT (site GCGACCACTAA)	0.823
GCGACGCCATGGACCGGTTTTCCCGGTAATCCGTATTTGTA (site GCAACGCCTTA)	0.542
GCGACGCCATGGACCGGTTTTCCCGGTAATCCGTATTTGTA (site GCCACGCCTTA)	0.0222
GCGACGCCATGGACCGGTTTTCCCGGTAATCCGTATTTGTA (site GCGACGCCTTA)	0.398
GCGACGCCATGGACCGGTTTTCCCGGTAATCCGTATTTGTA (site GCTACGCCTTA)	0.019
GCGACGGCATGGACCGGTTTTCCCGGTAATCCGTATTTGTC (site GCGACGGCTGA)	1.84
GCGAGCACATGGACCGGTTTTCCCGGTAATCCGTATTTGGC (site GCGAGCACTGC)	3.27
GCGAGCGCATGGACCGGTTTTCCCGGTAATCCGTATTTGTC (site GCGAGCGCTGA)	2.69
GCGAGGCCATGGACCGGTTTTCCCGGTAATCCGTATTTGGG (site GCGAAGCCTCC)	0.0133
GCGAGGCCATGGACCGGTTTTCCCGGTAATCCGTATTTGGG (site GCGACGCCTCC)	0.022
GCGAGGCCATGGACCGGTTTTCCCGGTAATCCGTATTTGGG (site GCGAGGCCTCC)	0.0117
GCGAGGCCATGGACCGGTTTTCCCGGTAATCCGTATTTGGG (site GCGATGCCTCC)	0.0249
GCGAGGGCATGGACCGGTTTTCCCGGTAATCCGTATTTGCC (site GCGAGGGCTGG)	2.23
GCGATAGCATGGACCGGTTTTCCCGGTAATCCGTATTTGTC (site GCGATAGCTGA)	2.34
GCGCCCACATGGACCGGTTTTCCCGGTAATCCGTATTTGGA (site GCGCCCACTTC)	0.365
GCGCGCACATGGACCGGTTTTCCCGGTAATCCGTATTTGCT (site GCGCGCACTAG)	2.68
GCGCTGACATGGACCGGTTTTCCCGGTAATCCGTATTTGAG (site GCGCTGACTCT)	1.62
GCGGAAACATGGACCGGTTTTCCCGGTAATCCGTATTTGCT (site GCGAAAACTAG)	0
GCGGAAACATGGACCGGTTTTCCCGGTAATCCGTATTTGCT (site GCGCAAACTAG)	1.5
GCGGAAACATGGACCGGTTTTCCCGGTAATCCGTATTTGCT (site GCGGAAACTAG)	2.19

Sequence	recombinant UMI read abundance (log10)
GCGGAAACATGGACCGGTTTTCCCGGTAATCCGTATTTGCT (site GCGTAAACTAG)	1.86
GCGGAGGCATGGACCGGTTTTCCCGGTAATCCGTATTTGAA (site GCGGAGGCTTT)	1.91
GCGGTAACATGGACCGGTTTTCCCGGTAATCCGTATTTGAT (site GCGGTAACTAT)	2.46
GCGTAAACATGGACCGGTTTTCCCGGTAATCCGTATTTGCT (site GCGAAAACTAG)	0
GCGTAAACATGGACCGGTTTTCCCGGTAATCCGTATTTGCT (site GCGCAAACTAG)	1.82
GCGTAAACATGGACCGGTTTTCCCGGTAATCCGTATTTGCT (site GCGGAAACTAG)	0.309
GCGTAAACATGGACCGGTTTTCCCGGTAATCCGTATTTGCT (site GCGTAAACTAG)	2.73
GCGTACCCATGGACCGGTTTTCCCGGTAATCCGTATTTGAG (site GCGTACCCTCT)	0.023
GCGTACTCATGGACCGGTTTTCCCGGTAATCCGTATTTGAC (site GCGTACTCTGT)	3.44
GCGTCAACATGGACCGGTTTTCCCGGTAATCCGTATTTGGT (site GCGTCAACTAC)	0.129
GCGTTAGCATGGACCGGTTTTCCCGGTAATCCGTATTTGTG (site ACGTTAGCTCA)	0.84
GCGTTAGCATGGACCGGTTTTCCCGGTAATCCGTATTTGTG (site CCGTTAGCTCA)	0.885
GCGTTAGCATGGACCGGTTTTCCCGGTAATCCGTATTTGTG (site GCGTTAGCTCA)	1.75
GCGTTAGCATGGACCGGTTTTCCCGGTAATCCGTATTTGTG (site TCGTTAGCTCA)	0.669
GCGTTTCCATGGACCGGTTTTCCCGGTAATCCGTATTTGCT (site GCGTTTCCTAG)	1.81
GCTAAAGCATGGACCGGTTTTCCCGGTAATCCGTATTTGAT (site ACTAAAGCTAT)	0.901
GCTAAAGCATGGACCGGTTTTCCCGGTAATCCGTATTTGAT (site CCTAAAGCTAT)	1.04
GCTAAAGCATGGACCGGTTTTCCCGGTAATCCGTATTTGAT (site GCTAAAGCTAT)	1.92
GCTAAAGCATGGACCGGTTTTCCCGGTAATCCGTATTTGAT (site TCTAAAGCTAT)	0.378
GCTAATACATGGACCGGTTTTCCCGGTAATCCGTATTTGGC (site ACTAATACTGC)	0
GCTAATACATGGACCGGTTTTCCCGGTAATCCGTATTTGGC (site CCTAATACTGC)	0.772
GCTAATACATGGACCGGTTTTCCCGGTAATCCGTATTTGGC (site GCTAATACTGC)	0.0276
GCTAATACATGGACCGGTTTTCCCGGTAATCCGTATTTGGC (site TCTAATACTGC)	0.548
GCTACAACATGGACCGGTTTTCCCGGTAATCCGTATTTGAG (site GCTACAACTCT)	0.921
GCTACGCCATGGACCGGTTTTCCCGGTAATCCGTATTTGCG (site GCTACGCCTCG)	0.00779
